The experiment deals with L1210 leukemia ip in BDF1 mice, survival T/C. Kind of experiment: NCI In Vivo Anticancer Drug Screen. Data for tumor model L1210 Leukemia (intraperitoneal) in B6D2F1 (BDF1) mice. As to conditions: endpoint: mean survival time, higher = longer survival. In a few lines:
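Ratio derived from survival: compound-dosed mice over vehicle-dosed mice, all bearing a transplantable tumor.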

Toxic doses and inconclusive results are not listed.

`COc1cccc2c1C(=O)c1c(O)c3c(c(O)c1C2=O)C[C@@](O)(C(=O)COC(=O)c1ccccc1)C[C@@H]3OC1CC(N)C(O)C(C)O1` (stereo not given in full): the T/C reads like this: (dose: 0.5 mg/kg/injection, schedule: Q04DX003 (ip), vehicle: Klucel (hydroxypropylcellulose) (HPC)) 117 % of control; (dose: 0.8 mg/kg/injection, schedule: Q04DX003 (ip), vehicle: Klucel (hydroxypropylcellulose) (HPC)) 118 % of control; (dose: 4.4 mg/kg/injection, schedule: Q04DX003 (ip), vehicle: Klucel (hydroxypropylcellulose) (HPC)) 152 % of control; (dose: 6.8 mg/kg/injection, schedule: Q04DX003 (ip), vehicle: Klucel (hydroxypropylcellulose) (HPC)) 165 % of control; (dose: 10.0 mg/kg/injection, schedule: Q04DX003 (ip), vehicle: Klucel (hydroxypropylcellulose) (HPC)) 172 % of control.

For `O=c1cc(CO)[nH]nc1CO`, the T/C (dose: 100.0 mg/kg/injection, schedule: Q01DX009 (ip), vehicle: saline) is 97 % of control; the T/C (dose: 100.0 mg/kg/injection, schedule: Q04DX003 (ip), vehicle: saline) was 101 % of control; the T/C (dose: 200.0 mg/kg/injection, schedule: Q01DX009 (ip), vehicle: saline) was 97 % of control; the T/C (dose: 200.0 mg/kg/injection, schedule: Q04DX003 (ip), vehicle: saline) is 106 % of control; the T/C (dose: 400.0 mg/kg/injection, schedule: Q01DX009 (ip), vehicle: saline) was 97 % of control; the T/C (dose: 400.0 mg/kg/injection, schedule: Q04DX003 (ip), vehicle: saline) is 103 % of control.

As for `CN(C)c1ccc2c(c1)Cc1cc(N3C(=O)C=CC3=O)ccc1-2`, the T/C runs as follows: (dose: 100.0 mg/kg/injection, schedule: Q04DX003 (ip), vehicle: Klucel (hydroxypropylcellulose) (HPC)) 101 % of control; (dose: 200.0 mg/kg/injection, schedule: Q04DX003 (ip), vehicle: Klucel (hydroxypropylcellulose) (HPC)) 101 % of control; (dose: 400.0 mg/kg/injection, schedule: Q04DX003 (ip), vehicle: Klucel (hydroxypropylcellulose) (HPC)) 95 % of control.

As to `O=c1c2ccccc2[nH]c(=S)n1-c1ccc(Cl)cc1`, the T/C runs as follows: (dose: 100.0 mg/kg/injection, schedule: Q01DX009 (ip), vehicle: Klucel (hydroxypropylcellulose) (HPC)) 100 % of control; (dose: 100.0 mg/kg/injection, schedule: Q04DX003 (ip), vehicle: saline with Tween-80) 100 % of control; (dose: 200.0 mg/kg/injection, schedule: Q01DX009 (ip), vehicle: Klucel (hydroxypropylcellulose) (HPC)) 111 % of control; (dose: 200.0 mg/kg/injection, schedule: Q04DX003 (ip), vehicle: saline with Tween-80) 100 % of control; (dose: 400.0 mg/kg/injection, schedule: Q01DX009 (ip), vehicle: Klucel (hydroxypropylcellulose) (HPC)) 97 % of control; (dose: 400.0 mg/kg/injection, schedule: Q04DX003 (ip), vehicle: saline with Tween-80) 97 % of control.

The values are drawn from PubChem BioAssay AID248 (DTP/NCI, 2004).
